Data: US20220054387A1, “COMPOSITION COMPRISING AT LEAST ONE GLYCOSYLATED FLAVONOID AND ITS USE IN COSMETICS OR DERMATOLOGY” (PURALLY, priority 2020, published 2022)

Tests used:
IL-31 = IL-31 release by keratinocytes exposed to benzo[a]pyrene and blue light (ELISA); assay type: cell-based, human
Protocol: The cells used in this study are primary cultures of normal human keratinocytes (NHKs) extracted after skin surgery of a donor.
They were cultured in a complete KSFM environment: Keratinocyte-SFM (17005-31, Gibco) with L-Glutamine, supplemented with a recombinant human epidermal growth factor (EGFhr, 10450-013, Gibco), extract of bovine pituitary gland (BPE, 13028-014, Gibco) and 1% of streptomycin penicillin (15070-063, Gibco) at 37° C. in 5% CO2 atmosphere up until 80% confluence.
The keratinocytes cultured according to Example 1 are exposed either to benzo[a]pyrene (B[a]P) at 20 μμM, or to blue light (450 nm) at 40 J/cm^2 or to the combination of both at the same doses. A myricitrin treatment with amounts ranging from 10 μμM to 50 μμM is applied to cells that have previously received the B[a]P and blue light combination.
After 24 hours' treatment, an assay of the interleukin 31 (IL-31) released by the cells is performed, via an immunoassay kit (ELISA.) The IL-31 assay was performed with the human IL-31 ELISA MAX™ Deluxe Set (445704, Biolegend.)

[1] = test system: normal human keratinocytes; test: Keratinocyte viability assay (XTT); assay type: cell-based; conditions: myricitrin 0.21 to 50 μμM, 24 hours
Protocol: The cells used in this study are primary cultures of normal human keratinocytes (NHKs) extracted after skin surgery of a donor. They were cultured in a complete KSFM environment: Keratinocyte-SFM (17005-31, Gibco) with L-Glutamine, supplemented with a recombinant human epidermal growth factor (EGFhr, 10450-013, Gibco), extract of bovine pituitary gland (BPE, 13028-014, Gibco) and 1% of streptomycin penicillin (15070-063, Gibco) at 37° C. in 5% CO2 atmosphere up until 80% confluence. On D0, normal human keratinocytes are incubated in 96-well plates in a culture medium. The cells are left to stabilize for 24 hours at 37° C. in 5% CO2 atmosphere, as described in Example 1. […] The NHK viability was assessed using a Cell Proliferation Kit II (XTT) (11465015001, Roche) in accordance with the manufacturer's instructions. The XTT system, a colorimetric method, is a test used to quantify mitochondrial activity. […] The formazan derivate is measured by spectrophotometry (at 450 nm with 650 nm of reference.) For each condition, optical density data averages (OD, absorbance) are calculated. The viability of the treated cells is expressed as a percentage of untreated control batch: a treatment that reduces the viability of the cells to below the comparative limit of 80% of mitochondrial activity in the untreated control batch, is considered cytotoxic for the cells. […]

## c1ccc2c(c1)cc1ccc3cccc4ccc2c1c34 [benzo[a]pyrene, reference compound]
IL-31; benzo[a]pyrene 20 μμM combined with blue light (450 nm) 40 J/cm^2
  increase in IL-31 by the keratinocytes: +111%

## C[C@@H]1O[C@@H](Oc2c(-c3cc(O)c(O)c(O)c3)oc3cc(O)cc(O)c3c2=O)[C@H](O)[C@H](O)[C@H]1O [myricitrin, 5,7-dihydroxy-3-[(2S,3R,4R,5R,6S)-3,4,5-trihydroxy-6-methyloxan-2-yl]oxy-2-(3,4,5-trihydroxyphenyl)chromen-4-one]
[1]
  toxic effect on keratinocytes (cell viability, XTT): no toxic effect
IL-31; myricitrin as of 20 μM, cells pre-treated with 20 μM of B[a]P and 40 J/cm^2 of blue light, 24 hours' treatment
  decrease in the production of IL-31: −100%
